Test system: stratum corneum of viable human skin (abdominal or breast reduction plastic surgery)
Assay: Desquamating activity: decrease in cohesion of the stratum corneum, histological score on excised human skin maintained under survival conditions
Type: cell-based
Settings: score 0-4; for Score 2: (mean ± sd, n = 6): Table 2, applied D0 and D1, analysed D2; for Score (mean ± sd, n = 6): Table 3 (white ginseng study)
Method: The study aims to detect the desquamating potential of the combination of active agents according to the invention in simplex solution by observation of the cohesion of the stratum corneum.
The keratolytic effect on excised skin maintained under survival conditions […] was evaluated. The study was carried out on viable human skin resulting from abdominal or breast reduction plastic surgery (6 donors). These skin fragments were placed in inserts, comprising a porous membrane ([…]), themselves positioned on culture wells containing a culture medium as described in Boisnic et al., Journal of Cosmetics and laser therapy, 2010:12:25-31.
The protocol consists in applying the test solutions to skin samples maintained under survival conditions. The products tested are applied in a proportion of 15 μl per 1 cm^2 sample and are not rinsed off. Application is carried out twice, at D0 and then, 24 hours later, at D1. The morphology of the stratum corneum is analysed 48 hours after the first application, at D2, on a biopsy.
The solutions applied are the following: • compound A (plant active agent according to the invention) alone at 0.1% and 0.5% by weight of active material in water, and • compound B alone at 0.3% by weight in water • combination of A at 0.1% and B at 0.3% by weight in water • combination of A at 0.5% and B at 0.3% by weight in water.
By way of comparison, no solution is applied to a sample, referred to as a control sample, and a solution of glycolic acid at 30% by weight in water is applied to another sample. 6 samples were used for each of the tests (controls, compound A and compound B and combinations of A and B).
The histological analysis of the horny layer is carried out on a skin section after staining with hemalaun-eosin (magnification 400). The decrease in the cohesion of the stratum corneum is expressed in the form of a score: • score 0: absence of modification • score 1: slight decrease • score 2: moderate decrease • score 3: large decrease • score 4: very large decrease with exfoliation
A paired Student test (p<0.05) was carried out in order to evaluate the significance of the difference with respect to the control.
The protocol described in Example 2 was reproduced by considering a plant active agent not in accordance with the invention, namely white ginseng which is devoid of ginsenoside Rg3. This active agent considered is the product Ginseng ES, distributed by the company Greentech.

CCCCCCCC(=O)c1ccc(O)c(C(=O)O)c1 [Compound B, 5-n-Octanoylsalicylic acid]
Score 2: (mean ± sd, n = 6) (Compound B at 0.3% in H2O): 2.14 ± 0.52
Score (mean ± sd, n = 6) (Compound B at 0.3% in H2O): 1.75 ± 0.19

O=C(O)CO [Glycolic acid, glycolic acid]
Score 2: (mean ± sd, n = 6) (Glycolic acid at 30% in H2O): 3.10 ± 0.12
Score (mean ± sd, n = 6) (Glycolic acid at 30% in H2O): 2.14 ± 0.41

Source: US20220079855A1, “GINGSENG-BASED COSMETIC COMPOSITION” (L'OREAL, priority 2018, published 2022)
